Tests used:
[1] = system: B16/F0 cells; assay: Tumor-cell uptake in the presence of DTG; format: cell-based, murine; details: DTG 90 μM, 30 min prior, 37° C.
Text: J. Labelled Compd. Radiopharm. 1994, 35, 242-244; Vilner, B. J.; John, C. S.; Bowen, W. D. Sigma-I and Sigma-2 Receptors Are Expressed in a Wide Variety of Human and Rodent Tumor Cell Lines. Cancer Res. 1995, 55, 408-413; and John, C. S.; Vilner, B. J.; Gulden, M. E.; Efange, S. M. N.; Langason, R. B.; Moody, T. W.; Bowen, W. D. Synthesis and Pharmacological Characterization of 4-[^125I]-N-(N-Benzylpiperidin-4-yl)-4-iodobenzamide: A High Affinity σ Receptor Ligand for Potential Imaging of Breast Cancer. […] Pre-incubation of the tumor cells with DTG (90 μM), 30 min prior to the uptake experiments with the ^99mTc-complexes, yields a lower tumor-cell uptake for complexes Tc-(Compound A) (29% less), Tc-(Compound C) (33% less), and Tc-(Compound D) (32% less) at 37° C. (FIG. 4). Additional dose-response experiments conducted with intact B16/F0 cells at 37° C. with Tc-(Compound C) and DTG as the inhibitor (FIG. 3) show a DTG concentration-dependent decrease in the uptake of the complex.
The effect of the inhibitor DTG on cell uptake of these complexes was studied by addition of the inhibitor at various concentrations to the cell suspension 30 min prior to addition of the ^99mTc-complexes. Fresh DTG stock solutions were made by dissolving DTG (3.0 mg, 12.5 μmol) in 0.38 mL PBS and 0.12 mL hydrochloric acid (0.1 N) and subjecting the mixture to ultrasound until a clear solution was obtained, followed by the addition of 0.50 mL FBS to produce a neutral solution at pH 7.4. The stock solutions were diluted by an appropriate amount of S-MEM, and aliquots between 5 μL and 25 μL were added to the cell suspension such that the final concentration of DTG was between 0.02 μM and 120 μM in a total cell suspension volume of 350 μL.

[2] = system: B16/F0 murine melanoma; assay: In-vivo tumor uptake and biodistribution; set-up: species or system C57B16 mice; details: mouse, in vivo
Procedure: In-Vivo Tumor Uptake. To study the tumor uptake of ^99mTc-complexes, Tc-(Compound A-D and J-K), in vivo, biodistribution experiments at 1 h and 6 h after their administration were carried out in C57B16 mice with palpable B16 melanoma nodules. The biodistribution data including melanoma/nontumor (M/NT) ratios for selected organs are summarized in Table 4 and 5 as percentage injected dose per gram ([…]).
Animal Studies. All animal experiments were performed in compliance with the Principles of Laboratory Animal Care (NIH publication #85-23, revised 1985). Biodistribution studies and tumor-uptake measurements were performed in C57B16 mice (15 to 20 g) bearing the B16/F0 murine melanoma on the hind limb. See for example the studies described in, which are hereby incorporated by reference, Brandau, W.; Niehoff, T.; Pulawski, P.; Jonas, M.; Dutschka, K.; Sciuk, J.; Coenen, H. H.; Schober, O. Structure Distribution Relationship of Iodine-123-Iodobenzamides as Tracers for the Detection of Melanotic Melanoma. J. Nucl. Med. 1996, 37, 1865-1871; Mohanmmed, A.; Nicholl, C.; Titsch, U.; Eisenhut, M. Radiojodinated N-(Alkylaminoalkyl)-Substituted 4-Methoxy-, 4-Hydroxy-, and 4-Aminobenzamides: Biological Investigations for the Improvement of Melanoma-Imaging Agents. Nucl. Med. Biol. 1997, 24, 373-380; Titsch, U.; Mohammed, A.; Wagner, S.; Oberdorfer, F.; Eisenhut, M. Syntheses of N-(2-Diethylaminoethyl)benzamides Suitable for ^99mTc Complexation. J. Labelled Compd. Radiopharm. 1997, 40, 416-418; Dittmann, H.; Coenen, H. H.; Zölzer, F.; Dutschka, K.; Brandau, W.; Streffer, C. In Vitro Studies on the Cellular Uptake of Melanoma Imaging Aminoalkyl-iodobenzamide Derivatives (ABA). Nucl. Med. Biol. 1999, 26, 51-56; and Michelot, J. M.; Moreau, M. F. C.; Veyre, A. J.; Bonafous, J. F.; Bacin, F. J.; Madelmont, J. C.; Bussiere, F.; Souteyrand, P. A.; Mauclaire, L. P.; Chossat, F. M.; Papon, J. M.; Labarre, P. G.; Kauffmann, Ph.; Plagne, R. J. Phase II Scintigraphic Clinical Trial of Malignant Melanoma and Metastases with Iodine-123-N-(2-Diethylaminoethyl 4-Iodobenzamide). J. Nucl. Med. 1993, 34, 1260-1266. The tumor cells (B16/F0), obtained from ATCC, were washed with PBS and transplanted subcutaneously on the left hind flank by an inoculation of 0.5×10^6 cells (0.1 mL). Ten to 14 days later the animals developed palpable tumor nodules 3 to 5 mm in diameter. The biodistribution studies were carried out by tail-vein injection of 25 to 30 μCi (0.05 to 0.1 mL) of the ^99mTc-labeled complexes Tc-(Compound A-D, H, J, K or M). At the designated time after tail-vein administration, the animals were weighed and sacrificed. The organs and tumors were harvested and, when appropriate, blotted dry, weighed, and counted in a gamma counter along with technetium-99m standards of the injected dose. The results are expressed as % ID/g tissue (Table 4 and 5)

## CCN(CC)CCN1CC[S][99Tc]2(=[O])[S]CC[N]2C(=O)C1 (centres unmarked) [Tc-(Compound A)]
[1]
  lower tumor-cell uptake after pre-incubation with DTG: 29%

## CCCCN(CCCC)CCN1CC[S][99Tc]2(=[O])[S]CC[N]2C(=O)C1 (centres unmarked) [Tc-(Compound B)]
[2]
  mel/lung ratio: 2.1
